Test results: patent EP1981504B1, “THIADIAZOLE DERIVATIVES FOR THE TREATMENT OF NEURO DEGENERATIVE DISEASES” (NV reMYND, priority 2006, dated 2007)
Converted amounts (≈) assume the structure as drawn.

Tested on: M17-SYNwt cells
Test: α-synuclein cytotoxicity assay (LDH leakage from paraquat-treated α-synuclein over-expressing neuroblastoma cells)
Type: cell-based, human
Conditions: for EC50 (µg/mL) / %I / EC50: paraquat 32 mM, 40 hours, LDH release; for EC50 (µg/mL) / EC50: 10 point curves in duplicate; for %I: percent inhibition of synuclein cytotoxicity at most effective concentration of test compound, relative to untreated paraquat cells; for LDH activity in the medium: Figure 2, dose response in paraquat-treated M17-SYNwt cells; for EC50: Homo sapiens, Neuroblastoma cell
Description: Subsequently, LDH activity was determined using Promega Cytotox 96 NonRadioactive cytotoxicity assay, (Cat. G1780) according the supplier's instructions.
This corresponds to the following equation: (LDHreleaseoftreatedparaquatcellsatnon-effectiveconcentrationoftestcmpd)−(LDHreleaseoftreatedparaquatcellsatmosteffectiveconcentrationoftestcmpd)/(LDHreleaseofuntreatedparaquatcells)−(LDHreleasecontrolcells)*100% [formula]
1,2,4-thiadazole compounds made according to the methods described herein were screened for activity using the α-synuclein cytotoxicity assay as described above. Dose responses were carried out on all compounds found to be active (10 point curves in duplicate).

Compound | EC50 (µg/mL) | %I [%] | LDH activity in the medium | EC50 [µg/mL]
1-(3-methylbenzoyl)-4-[3-(4-methylbenzyl)-1,2,4-thiadiazol-5-yl]-2-methylpiperazine [Compound 144] | 0,56 µg/mL | 64 | – | –
1-(4-methoxybenzoyl)-4-[3-(4-methylbenzyl)-1,2,4-thiadiazol-5-yl]-2-methylpiperazine [Compound 130] | 0,25 µg/mL | 118 | – | –
1-(phenylprop-2-ensulfonyl)-4-[3-(4-fluorobenzyl)-1,2,4-thiadiazol-5-yl]piperazine [Compound 78] | 0,13 µg/mL | 75 | – | –
1-(phenylprop-2-ensulfonyl)-4-[3-(4-methylbenzyl)-1,2,4-thiadiazol-5-yl]-2-methylpiperazine [Compound 79] | 0,17 µg/mL | 53 | – | –
1-(phenylprop-2-ensulfonyl)-4-[3-(4-methylbenzyl)-1,2,4-thiadiazol-5-yl]piperazine [Compound 80] | 0,056880 µg/mL | 70 | – | –
1-[3-trifluorophenylsulfonyl]-4-[3-(4-fluorobenzyl)-1,2,4-thiadiazol-5-yl]-2-methylpiperazine [Compound 46] | 1,34 µg/mL | 64 | – | –
1-[4-bromophenylsulfonyl]-4-[3-(4-methylbenzyl)-1,2,4-thiadiazol-5-yl]-3-methylpiperazine [Compound 40] | 0,099855 µg/mL | 77 | – | –
2-phenyl-N-{2-[4-[3-(4-fluorobenzyl)-1,2,4-thiadiazol-5-yl]piperazin-1-yl]ethyl}butanamide [Compound 111] | 1,79 µg/mL | 79 | able, in a dose-dependent manner, to reduce LDH activity in the medium | –
3-phenyl-N-{2-[4-[3-(4-fluorobenzyl)-1,2,4-thiadiazol-5-yl]piperazin-1-yl]ethyl}propanamide [Compound 112] | 0,55 µg/mL | 91 | – | –
O=C(Cc1ccccc1)N1CCN(c2nc(Cc3ccc(F)cc3)ns2)CC1 [Compound 1, 4-phenylacetyl-1-[3-(4-fluorobenzyl)-1,2,4-thiadiazol-5-yl]piperazine] | – | 75 | – | 0.15 (≈ 0.378 µM)
O=C(Cc1ccc(F)cc1)N1CCN(c2nc(Cc3ccc(F)cc3)ns2)CC1 [Compound 2, 4-(4-fluorophenylacetyl),1-[3-(4-fluorobenzyl)-1,2,4-thiadiazol-5-yl]piperazine] | – | 54 | – | 0.25 (≈ 0.603 µM)
Cc1ccc(Cc2nsc(N3CCN(C(=O)Cc4ccc(F)cc4)C(C)C3)n2)cc1 (stereo not drawn) [Compound 3, 1-(4-fluorophenylacetyl)-4-[3-(4-methylbenzyl)-1,2,4-thiadiazol-5-yl]-2-methylpiperazine] | – | 76 | – | 2.2 (≈ 5.18 µM)
COc1ccc(CC(=O)N2CCN(c3nc(Cc4ccc(F)cc4)ns3)CC2C)cc1 (stereo not drawn) [Compound 4, 1-(4-methoxyphenylacetyl)-4-[3-(4-fluorobenzyl)-1,2,4-thiadiazol-5-yl]-2-methylpiperazine] | – | 56 | – | 0.82 (≈ 1.86 µM)
CC1CN(c2nc(Cc3ccc(F)cc3)ns2)CCN1C(=O)Cc1ccccc1 (stereo not drawn) [Compound 5, 1-phenylacetyl-4-[3-(4-fluorobenzyl)-1,2,4-thiadiazol-5-yl]-2-methylpiperazine] | – | 83 | – | –
CC1CN(c2nc(Cc3ccc(F)cc3)ns2)CCN1C(=O)Cc1ccc(F)cc1 (stereo not drawn) [Compound 6, 1-(4-fluorophenylacetyl)-4-[3-(4-fluorobenzyl)-1,2,4-thiadiazol-5-yl]-2-methylpiperazine] | – | 75 | – | –
CC1CN(c2nc(Cc3ccc(F)cc3)ns2)CCN1C(=O)C(Cl)c1ccccc1 (stereo not drawn) [Compound 7, 1-[chloro(phenyl)acetyl]-4-[3-(4-fluorobenzyl)-1,2,4-thiadiazol-5-yl]-2-methylpiperazine] | – | 69 | – | –
CCC(C(=O)N1CCN(c2nc(Cc3ccc(F)cc3)ns2)CC1C)c1ccccc1 (stereo not drawn) [Compound 8, 1-(2-phenylbutanoyl)-4-[3-(4-fluorobenzyl)-1,2,4-thiadiazol-5-yl]-2-methylpiperazine] | – | 71 | – | 1.49 (≈ 3.4 µM)

Compound | EC50 (µg/mL) | %I [%] | LDH activity in the medium | EC50 [µg/mL]
O=C(Nc1cccc(F)c1)N1CCN(c2nc(Cc3ccc(F)cc3)ns2)CC1 [Compound 9, N-(3-fluorophenyl)-4-[3-(4-fluorobenzyl)-1,2,4-thiadiazol-5-yl]piperazine-1-carboxamide] | – | 53 | – | 0.52 (≈ 1.25 µM)
Cc1ccccc1NC(=O)N1CCN(c2nc(Cc3ccc(F)cc3)ns2)CC1C (stereo not drawn) [Compound 10, N-(2-methylphenyl)-4-[3-(4-fluorobenzyl)-1,2,4-thiadiazol-5-yl]-2-methylpiperazine-1-carboxamide] | – | 72 | – | 0.6 (≈ 1.41 µM)
CCc1ccc(NC(=O)N2CCN(c3nc(Cc4ccc(F)cc4)ns3)CC2C)cc1 (stereo not drawn) [Compound 11, N-(4-ethylphenyl)-4-[3-(4-fluorobenzyl)-1,2,4-thiadiazol-5-yl]-2-methylpiperazine-1-carboxamide] | – | 73 | – | 0.69 (≈ 1.57 µM)
CCc1ccccc1NC(=O)N1CCN(c2nc(Cc3ccc(F)cc3)ns2)CC1C (stereo not drawn) [Compound 12, N-(2-ethylphenyl)-4-[3-(4-fluorobenzyl)-1,2,4-thiadiazol-5-yl]-2-methylpiperazine-1-carboxamide] | – | 92 | – | 0.89 (≈ 2.02 µM)
O=C(Nc1ccccc1)N1CCN(c2nc(Cc3ccc(F)cc3)ns2)CC1 [Compound 13, N-phenyl-4-[3-(4-fluorobenzyl)-1,2,4-thiadiazol-5-yl]piperazine-1-carboxamide] | – | 71 | – | 1.23 (≈ 3.09 µM)
CCOc1ccc(NC(=O)N2CCN(c3nc(Cc4ccc(F)cc4)ns3)CC2C)cc1 (stereo not drawn) [Compound 14, N-(4-ethoxyphenyl)-4-[3-(4-fluorobenzyl)-1,2,4-thiadiazol-5-yl]-2-methylpiperazine-1-carboxamide] | – | 70 | – | 1.73 (≈ 3.8 µM)
Cc1ccccc1NC(=O)N1CCN(c2nc(Cc3ccc(F)cc3)ns2)CC1 [Compound 15, N-(2-methylphenyl)-4-[3-(4-fluorobenzyl)-1,2,4-thiadiazol-5-yl]piperazine-1-carboxamide] | – | 65 | – | 5.01 (≈ 12.2 µM)
O=C(Nc1ccccc1F)N1CCN(c2nc(Cc3ccc(F)cc3)ns2)CC1 [Compound 16, N-(2-fluorophenyl)-4-[3-(4-fluorobenzyl)-1,2,4-thiadiazol-5-yl]piperazine-1-carboxamide] | – | 72 | – | 5.68 (≈ 13.7 µM)
O=C(Nc1ccccc1C(F)(F)F)N1CCN(c2nc(Cc3ccc(F)cc3)ns2)CC1 [Compound 17, N-(2-trifluoromethylphenyl)-4-[3-(4-fluorobenzyl)-1,2,4-thiadiazol-5-yl]piperazine-1-carboxamide] | – | 46 | – | –
CC1CN(c2nc(Cc3ccc(F)cc3)ns2)CCN1C(=O)Nc1ccccc1C(F)(F)F (stereo not drawn) [Compound 18, N-(2-trifluoromethylphenyl)-4-[3-(4-fluorobenzyl)-1,2,4-thiadiazol-5-yl]-2-methylpiperazine-1-carboxamide] | – | 41 | – | –
Cc1cccc(C)c1NC(=O)N1CCN(c2nc(Cc3ccc(F)cc3)ns2)CC1C (stereo not drawn) [Compound 19, N-(2,6-dimethylphenyl)-4-[3-(4-fluorobenzyl)-1,2,4-thiadiazol-5-yl]-2-methylpiperazine-1-carboxamide] | – | 95 | able, in a dose-dependent manner, to reduce LDH activity in the medium | 0.2 (≈ 0.455 µM)
Cc1ccc(NC(=O)N2CCN(c3nc(Cc4ccc(F)cc4)ns3)CC2C)c(C)c1 (stereo not drawn) [Compound 20, N-(2,4-dimethylphenyl)-4-[3-(4-fluorobenzyl)-1,2,4-thiadiazol-5-yl]-2-methylpiperazine-1-carboxamide] | – | 106 | – | 0.76 (≈ 1.73 µM)
CC1CN(c2nc(Cc3ccc(F)cc3)ns2)CCN1C(=O)Nc1ccc(F)cc1F (stereo not drawn) [Compound 23, N-(2,4-difluorophenyl)-4-[3-(4-fluorobenzyl)-1,2,4-thiadiazol-5-yl]-2-methylpiperazine-1-carboxamide] | – | 66 | – | 0.94 (≈ 2.1 µM)
Cc1cccc(C)c1NC(=O)N1CCN(c2nc(Cc3ccc(F)cc3)ns2)CC1 [Compound 24, N-(2,6-dimethylphenyl)-4-[3-(4-fluorobenzyl)-1,2,4-thiadiazol-5-yl]piperazine-1-carboxamide] | – | 124 | – | 1.2 (≈ 2.82 µM)
CC1CN(c2nc(Cc3ccc(F)cc3)ns2)CCN1C(=O)Nc1cccc2ccccc12 (stereo not drawn) [Compound 25, N-1-naphtyl-4-[3-(4-fluorobenzyl)-1,2,4-thiadiazol-5-yl]-2-methylpiperazine-1-carboxamide] | – | 97 | – | 1.69 (≈ 3.66 µM)
CC1CN(c2nc(Cc3ccc(F)cc3)ns2)CCN1C(=O)Nc1ccc(F)c(F)c1 (stereo not drawn) [Compound 26, N-(3,4-difluorophenyl)-4-[3-(4-fluorobenzyl)-1,2,4-thiadiazol-5-yl]-2-methylpiperazine-1-carboxamide] | – | 70 | – | –
COc1ccc(NC(=O)N2CCN(c3nc(Cc4ccc(F)cc4)ns3)CC2)c(OC)c1 [Compound 27, N-(2,4-dimethoxyphenyl)-4-[3-(4-fluorobenzyl)-1,2,4-thiadiazol-5-yl]piperazine-1-carboxamide] | – | 67 | – | –
